This is an account of results in US6747060B2, “Non-natural galanin receptor ligands” (Kemia, Inc., priority 2002, dated 2004).

Entries after “also recorded” stand apart in the source; their conditions may differ. Where two headings read alike, the source gives them in different places. Non-standard residues stand in square brackets, D forms with d. Residues, ends and D or L forms follow the SMILES beside them. *: point of attachment. Fmoc = O=C(OCC1c2ccccc2-c2ccccc21)*; AMC = Cc1cc(=O)oc2cc(N*)ccc12; Cha = N[CH](CC1CCCCC1)C(=O)O

For one data set, the system named is PTZ-induced seizures. Briefly: PTZ-induced seizures in mice. The procedure: The experiments were performed on C57B1 male mice (weight 20-30 g). Animals to be treated with galanin, or M35 were anaesthetized with ketamine (100 mg/kg i.p.) and xylazine (15 mg/kg i.p.) and stereotaxically implanted i.c.v. with guide cannulae (0.6 mm internal diameter). Postoperative recovery was 3-5 days. Galanin, or M35 were injected into the lateral brain ventricle of freely moving mice by means of Hamilton microsyringe in the amount 0.5 nmol, in 0.5 μl, at a rate […]. Control animals were treated with saline.
Galnon was dissolved in the 50% DMSO in saline and administered i.p. in a dose of 2 mg/kg […] prior to PTZ injection (when the effect of galnon alone was studied) or […] after M35 injection (in co-administration studies). Control animals were treated with 50% DM50 in saline.
Seizures were induced by i.p. injection of PTZ (Research Biochemicals, Natick, Massachusetts) in a dose of 40 mg/kg (when studying the effects of galanin only, or galnon only) or 30 mg/kg (when studying the effect of M35 and galnon+M35). The animals were placed in individual Plexiglas cages and videotaped for 15 min after PTZ administration. Seizures were analyzed off-line by a unbiased investigator and quantified using the following scale: 0: no motor seizures; 1: staring, mouth, or facial movements; 2: head nodding or isolated twitches; 3: unilateral bilateral forelimb clonus; 4: rearing; 5: rearing and falling; 6: tonic extension of hind limbs or death. The latency of each behavioral seizure type and the highest seizure score were recorded. […] Statistical methods used: t-test (latency) and Mann-Whitney (seizure score).

In the next data set the target is adenylate cyclase. Briefly: adenylate cyclase assay (basal and forskolin-stimulated cAMP production) in membranes from rat ventral hippocampi. The class given is biochemical. The protocol: (§1) The mixtures of ligands and individual compounds were screened to displace [^125I]-galanin in equilibrium binding assay using membrane preparations from rat hippocampi, rich in galanin binding sites as described in detail previously^11. Effect of galnon on basal and forskolin-stimulated cAMP production were performed essentially as described by Valkna et al.^12 in membranes from rat ventral hippocampi.
Background: Cyclic AMP is a second messenger, typically raised through Gs and lowered through Gi signalling.

Data set [1] has as its system self sustaining status epilepticus. Briefly: self sustaining status epilepticus (SSSE) induced by PPS in rats. The class given is in vivo. The procedure:
The effects of intrahippocampal galnon administration was evaluated in rats. SSSE consisted of recurrent limbic seizures of varying intensity (stages 1-5), which lasted for 12-18 h after PPS was discontinued. Behavioral seizures were accompanied by high-frequency (13+Hz) and amplitude (1+mV) discharges with the duration of individual events between 30 s and 3 min. Between the seizures, ictal spikes with the amplitude of 0.8 mV and more and frequency of 3 Hz and less were continuously generated (spike frequency of 3 Hz and more was recognized as a seizure)^5.

For another data set, the target named is galanin receptors. Briefly: [125I]-galanin displacement, equilibrium binding in rat ventral hippocampal membranes. As to conditions: membranes from rat ventral hippocampus. The protocol:
as §1

Another data set has as its system galanin binding sites. Briefly: autoradiographic [125I]-galanin binding assay on rat spinal cord sections. The conditions noted are these: rat spinal cord sections L4, L5; galnon at 1, 3 and 5 μM. The protocol: Rats were decapitated, the spinal cord lumbar segments L4 and L5 were dissected out, rapidly frozen, cut in a cryostat and processed for the autoradiographic ligand binding assay of Young and Kuhar^13, as described previously^14. Galnon was added at 1, 3 and 5 μM concentration. The sections were processed in a BAS3000 Bio-Imagine Analyzer (Fuji) and quantified and then exposed to Hyperfilm-Max X-ray film (Arnersham Pharmacia Biotech).

The next data set addresses T1, human GalR1 (Homo sapiens, UniProt P47211).
T1 sequence (P47211 1-349): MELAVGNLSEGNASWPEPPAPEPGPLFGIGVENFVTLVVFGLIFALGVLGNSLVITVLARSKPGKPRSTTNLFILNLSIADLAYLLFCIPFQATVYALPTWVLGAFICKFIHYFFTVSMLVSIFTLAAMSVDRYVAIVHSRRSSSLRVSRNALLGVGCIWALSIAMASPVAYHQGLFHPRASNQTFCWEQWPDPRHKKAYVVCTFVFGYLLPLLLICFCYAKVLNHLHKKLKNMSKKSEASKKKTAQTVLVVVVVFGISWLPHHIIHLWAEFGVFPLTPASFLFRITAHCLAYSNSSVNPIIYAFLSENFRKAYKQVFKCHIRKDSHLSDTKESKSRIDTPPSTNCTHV
The conditions noted are these: antagonists, literature reports; cited from earlier work.

Setting [2] is: equimolar galnon into hippocampus before M35 5 nmol, 7 min PPS.
Setting [3] is: galnon 1 nmol, control rats injected with scrambled PNA.

As a reminder, the EC50 is the concentration at which the effect is half-maximal. In general, Ki refers to a measure of affinity in units of concentration, obtained from inhibition or displacement. A word on the IC50: it is the midpoint of a concentration-inhibition curve.

Take `Cc1cc(=O)oc2cc(NC(=O)C(CCCCN)NC(=O)C(CC3CCCCC3)NC(=O)OCC3c4ccccc4-c4ccccc43)ccc12` (stereo not drawn) [galnon, 1-[5-amino-1-(4-methyl-2-oxo-2H-chromen-7-ylcarbamoyl)-pentylcarbamoyl]-2-cyclohexyl-ethyl-carbamic acid 9H-fluoren-9-ylmethyl ester] (Fmoc-[Cha]-Lys-{AMC}; configuration not given here): in the data set with PTZ-induced seizures (M35 i.c.v. co-administered with galnon i.p., PTZ 30 mg/kg), the “effect on seizure-facilitating effect of M35” value was “completely abolished”. The compound further showed a maximal seizure score with PTZ-induced seizures (PTZ 40 mg/kg i.p., 2 mg/kg i.p. 15 min prior to PTZ, scale 0-6) of 1.45. In the data set with PTZ-induced seizures (PTZ 40 mg/kg, galnon 2 mg/kg i.p.), the “anticonvulsant effect compared with galanin i.c.v. 0.5 nmol” value is given as “comparable to that of galanin”. In the data set with PTZ-induced seizures (mice, galnon 2 mg/kg i.p.), the behavioral side effects entry is given as “No obvious behavioral side effects”. Also, the EC50 at adenylate cyclase (basal, read-out: EC50, M of inhibition of adenylate cyclase activity (basal)) came to 8 µM. The EC50 at adenylate cyclase (forskolin stimulated, read-out: EC50, M of inhibition of adenylate cyclase activity (forskolin stimulated)) stood at 10 µM. The “anticonvulsant effect in the presence of GalR antagonist M35” value in data set [1] (M35 0.5 nmol pretreatment) is “attenuated; also recorded: abolished”. Further, in data set [1] (setting [2]), the “duration of SSSE” value worked out at 37 ± 8 min and the total seizure time came out at 13 ± 4 min. In data set [1] (galnon 1 nmol, PNA1-pretreated animals (GalR1 down-regulated)), the “effect on self-sustaining seizures” value was “no effect”. Further, in data set [1] (setting [3]), the “reduction of duration of SSSE” value is 7 fold and the “reduction of total seizure time” value worked out at 9 fold. In data set [1] (intrahippocampal injection 10 min after the end of PPS), the “effect on SSSE” value was “attenuated SSSE in a dose dependent manner”. This compound registered an SSSE duration in data set [1] (intrahippocampal, maximal dose 5 nmol, 30 min PPS) of 28 ± 8 min. This compound had a Ki at galanin receptors of 4.8 µM. Further, the “displacement of [125I]-galanin, autoradiographic signal” value with galanin binding sites was “significant increase in binding as compared to controls was only seen at the concentration of 5 μM”.
With `COC(=O)C1=C[C@@H](O)[C@@H](O)[C@H](O)[C@@H]1Oc1c(Cl)c(C)c(Cl)c2c1C(=O)[C@@]1(O2)C(OC)=CC(=O)C=C1C(=O)OC` [Sch 202596], the IC50 on human GalR1 was 1.4 µM.
As for dithiipin-1,1,4,4-tetroxide, the IC50 at human GalR1 is 0.17 µM.
